Source: publication PMC8692993, “PPARα and PPARγ activation is associated with pleural mesothelioma invasion but therapeutic inhibition is ineffective” (iScience, 2021)
Read-outs that look alike come from different tables or passages of the source.

Columns and labels:
PPARα [1] = molecular target: T1, PPARα (Homo sapiens, UniProt Q07869); test: LanthaScreen TR-FRET binding assay, PPARα; conditions: 2 h incubation, mean of 3 replicates ± SEM
T1 sequence (Q07869 239-466 limits assumed): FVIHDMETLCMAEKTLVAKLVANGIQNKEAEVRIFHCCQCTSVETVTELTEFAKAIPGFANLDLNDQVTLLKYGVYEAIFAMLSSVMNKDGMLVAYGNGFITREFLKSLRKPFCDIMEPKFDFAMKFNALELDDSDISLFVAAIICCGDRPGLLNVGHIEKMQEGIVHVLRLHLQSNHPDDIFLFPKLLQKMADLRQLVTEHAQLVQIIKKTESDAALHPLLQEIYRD
Protocol: (§1) The LanthaScreen™ TR-FRET binding assay was performed following the manufacturer's guidelines (PV4894, Invitrogen) as follows, 20 mM stock solution of the ligand or control in DMSO were serially diluted using 100% DMSO to produce a range of concentrations from 100 μM to 1 pM. The test compound solutions were mixed with the reaction buffer in a 1 (ligand) in 10 (reaction buffer) dilution for a final 2X ligand concentration. This was mixed with the reaction components (glutathione S-transferase (GST)-PPPARγLBD (0.5 nM)/, terbium (Tb)-labelled anti-GST antibody (5 nM) and Fluormone pan-PPAR green (5 nM for PPARγ; 20 nM for PPARα) at room temperature in a ratio of 8 μLl 2X ligand solution: 4 μLl of 4XFluormone: and 4 μLl 4X GST-PPPARγLBD/terbium (Tb)-labelled anti-GST antibody to produce a final reaction mixture volume of 16 μL. The concentration of DMSO in the final reaction mixture was 5%. The reaction mixture was kept at room temperature for 2 h prior to recording the TR-FRET emission spectra using a CLARIOstar Plus microplate reader (BMG Labtech). […] Results are expressed as the ratio of fluorescence intensity at 520 nm (Fluormone emission) and 490 nm (Tb emission). […] For each compound three serial dilutions were prepared and measured separately. The IC50 and SEM values were determined using a sigmoidal dose-response equation with varying slope using GraphPad Prism.

PPARγ [2] = molecular target: T2, PPARγ (Homo sapiens, UniProt P37231); test: LanthaScreen TR-FRET binding assay, PPARγ; conditions: 2 h incubation, mean of 3 replicates ± SEM
T2 sequence (P37231 238-503 limits assumed): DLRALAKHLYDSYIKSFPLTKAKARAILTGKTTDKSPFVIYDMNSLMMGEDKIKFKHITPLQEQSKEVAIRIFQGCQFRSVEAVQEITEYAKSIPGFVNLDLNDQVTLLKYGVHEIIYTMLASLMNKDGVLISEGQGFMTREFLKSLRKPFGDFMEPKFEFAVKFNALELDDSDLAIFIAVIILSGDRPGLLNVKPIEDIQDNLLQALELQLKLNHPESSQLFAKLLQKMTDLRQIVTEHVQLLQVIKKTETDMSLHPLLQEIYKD
Protocol: as §1

PPARα [3] = molecular target: T1, PPARα; design: method as in Leesnitzer et al., 2002; conditions: displacement of [3H]GW2331, incubation time 1 h, ref Leesnitzer et al., 2002, read-out: Lit. Binding assay, IC50; cited from earlier work
PPARγ [4] = molecular target: T2, PPARγ; design: method as in Leesnitzer et al., 2002; conditions: displacement of [3H]rosiglitazone, incubation time 1 h, ref Leesnitzer et al., 2002, read-out: Lit. Binding assay, IC50; cited from earlier work
PPARα [5] = molecular target: T1, PPARα; test: HG5LN reporter cell assay, PPARα-mediated transcription; format: cell-based; design: expressed in transfected cells; host or cells: HG5LN (HeLa-derived, GAL4RE-luciferase)
From the text: (§2) Nuclear receptors, including PPARα and γ, are ligand-inducible transcription factors that form heterodimers with retinoid X receptors and bind to specific DNA sites located in the enhancer/promoter region of target genes, releasing co-repressors and/or recruiting co-activators ([Wang, 2010]). We therefore assessed the functional consequences of the ligands on PPARα and γ-mediated transcriptional activation in reporter cell lines. These cell lines were generated as previously reported by a two-step transfection procedure ([Seimandi et al., 2005]). First, a stable cell line, HG5LN, expressing the reporter gene (GAL4RE-luciferase) was developed from the HeLa cell line. These cells were then transfected with a plasmid expressing the C-terminal ligand-binding domain of PPARα or γ fused to GAL4 DNA-binding domain. The parental HG5LN cells were used as a control to test non-specific modulation of luciferase expression by the small molecules investigated (Figure S4A). The HG5LN PPAR reporter cells therefore allow comparison of the functional activity at, and selectivity of different ligands for, PPARα and γ. […] As expected ([Abu Aboud et al., 2015]), GW6471 potently antagonized PPARα (Figure 4E and Table 1).
(§3) A transfected […] cell line HG5LN was used ([Balaguer et al., 2001]). These cells were cultured in Dubecco's modified Eagle's medium (DMEM-F12 Thermo Fisher Scientific) with phenol red and supplemented with 5% foetal calf serum, incubated at 37°C in a 5% CO2/95% air-humidified atmosphere. Luciferase assays were performed in DMEM-F12 (Thermo Fisher Scientific) without phenol red and supplemented with 5% dextran-coated charcoal-stripped FCS (test culture medium), puromycin (Thermo Fisher Scientific) 0.5 μg/mL and geneticin (Thermo Fisher Scientific) 1 mg/mL. Cells were seeded at a density of 5 x 10^4 cells/well and incubated for 8 h at 37°C in a 96-well plate white opaque tissue culture plates (Becton-Dickinson). Tested compounds were added in serial dilutions and incubated for 16 h at 37°C. After incubation, the medium containing the effectors was carefully removed and replaced by culture medium containing 3 x 10^−4 mol/L luciferin (Sigma Chemicals). After 5 min incubation at room temperature, the 96-well plate was then read with a Microbeta Wallac luminometer and the luminescence was measured in the living cells for 2 s. All experiments were performed in quadruplicate.

PPARγ [6] = molecular target: T2, PPARγ; test: HG5LN reporter cell assay, PPARγ-mediated transcription; format: cell-based; design: expressed in transfected cells; host or cells: HG5LN (HeLa-derived, GAL4RE-luciferase)
From the text: as §2, §3

PPARα [7] = molecular target: T1, PPARα; design: expressed in transfected cells; host or cells: HG5LN (HeLa-derived, GAL4RE-luciferase); method as in Seimandi et al., 2005; conditions: ref Seimandi et al., 2005, cited from earlier work
PPARγ [8] = molecular target: T2, PPARγ; design: expressed in transfected cells; host or cells: HG5LN (HeLa-derived, GAL4RE-luciferase); method as in Seimandi et al., 2005; conditions: inhibition of agonism by 20 nM rosiglitazone (BRL49653), ref Seimandi et al., 2005, read-out: Functionality, Lit. IC50; cited from earlier work
[9] = test system: brain metastases from melanoma and breast cancer; design: method as in Zou et al., 2019; conditions: murine models; ref Zou et al., 2019; cited from earlier work
[10] = test system: SC model of melanoma or a metastatic model of lung cancer; design: method as in Zou et al., 2019; conditions: ref Zou et al., 2019; cited from earlier work
VGE62 = test: MTT cell metabolic activity assay, VGE62; format: cell-based, human; conditions: VGE62, arachidonic acid 5 and 10 μM, p <0.05
Protocol: (§4) Cells were harvested and seeded in 96-flat well plates (Corning) at a density of 5 x 10^4 cells/mL overnight. Media was removed and 100 μL media with GW6471 or GW9662 at indicated concentrations was added to each well. Cell viability and toxicity were measured at 48 h. Cells were incubated with 50 μL of a 2 mg/mL solution of (3-(4,5-dimethyl-thiazole-2-yl)-2,5-[…] tetrazolium (MTT, Sigma-Aldrich) in PBS for 4 h and then exposed to 100 μL dimethyl sulfoxide (DMSO; Sigma-Aldrich). Cell viability was measured by absorption at 570 nm in a microplate spectrophotometer (Spectromax 250 plate reader). Results are shown as relative cell viability.

AB1 = test: MTT cell metabolic activity assay, AB1; format: cell-based, mouse; conditions: AB1, arachidonic acid 5 and 10 μM, p <0.05
Protocol: as §4

AE17 = test: MTT cell metabolic activity assay, AE17; format: cell-based, mouse; conditions: AE17, arachidonic acid 5 and 10 μM, p <0.05
Protocol: as §4

[11] = test system: HAP1, HAP1 PPARA KO, and HAP1 PPARG KO cell lines; test: MTT cell metabolic activity assay, HAP1 lines; format: cell-based, human; conditions: arachidonic acid 5 and 10 μM, p <0.0001
Protocol: as §4

Question: For `O=C(Nc1ccccc1)c1cc([N+](=O)[O-])ccc1Cl` [GW9662], which IC50 (PPARα [1]) is on record?
Answer: 214 ± 64.6 nM

Question: And the IC50 (PPARγ [2])?
Answer: 12.4 ± 3.6 nM

Question: And the IC50 (PPARα [3])?
Answer: 39 ± 4 nM

Question: And the IC50 (PPARγ [4])?
Answer: 5.4 ± 0.6 nM

Question: And the “Functionality, Type” value (PPARα [5])?
Answer: partial agonist

Question: And the IC50 (PPARα [5]; inhibition of agonism by 10 nM GW7647, 16 h incubation, mean of 3 experiments ± SEM)?
Answer: 131 ± 31 nM

Question: And the “Functionality, Type” value (PPARγ [6])?
Answer: antagonist

Question: What about the IC50 (PPARγ [6]; inhibition of agonism by 30 nM rosiglitazone, 16 h incubation, mean of 3 experiments ± SEM) of the same molecule?
Answer: 4 ± 2.6 nM

Question: What about the EC50 (PPARα [7]; PPARα partial agonism, read-out: Functionality, Lit. EC50) of the same molecule?
Answer: 26 ± 9 nM

Question: What about the IC50 (PPARα [7]; PPARα, inhibition of agonism by 30 nM GW7647, read-out: Functionality, Lit. IC50) of the same molecule?
Answer: 188 ± 43 nM

Question: What about the “Maximal activity reached (partial agonism)” value (PPARα [7]; PPARα) of the same molecule?
Answer: j 33% of maximal activity ([Seimandi et al., 2005]).

Question: What about the IC50 (PPARγ [8]) of the same molecule?
Answer: 3.8 ± 1.3 nM

Question: With `O=C(Nc1ccncc1)c1cc([N+](=O)[O-])ccc1Cl` [T0070907] as the molecule, how does the Brain metastases [9] read?
Answer: significant decrease of brain metastases from melanoma and breast cancer

Question: And the Tumor growth [10]?
Answer: did not find an inhibitory effect on tumor growth

Question: Which results are given for `CCCCC/C=C\C/C=C\C/C=C\C/C=C\CCCC(=O)O` [arachidonic acid]?
Answer: Proliferation (MTT) (VGE62): increased proliferation in a concentration-dependent manner; Proliferation (MTT) (AB1): increased proliferation in a concentration-dependent manner; Proliferation (MTT) (AE17): increased proliferation in a concentration-dependent manner; Proliferation (MTT) in HAP1 parental versus PPARA/PPARG KO cells [11]: significant increase in proliferation, but only in the HAP1 parental cell line
